Source: US6596882B2, “Recovery and purification of 3,4-epoxy-1-butene using water-miscible solvents” (Eastman Chemical Company, priority 2001, dated 2003)

What was measured:
[1] = Relative distribution coefficient of epoxybutene into the aqueous phase in the presence of a water-miscible solvent; assay type: physicochemical; conditions: one part solvent added to two parts of 2:1 water-epoxybutene mixture, room temperature, aqueous phase by GC; relative to water alone (=1.00)
Experimental: This example compares the absorption affinity of various water-miscible solvents for epoxybutene in the presence of water, as occurs in the absorbent zone of the present invention. A standard mixture of 2 parts by weight water and one part by weight epoxybutene was prepared. A portion of the standard solution was placed in a separatory funnel, shaken, allowed to settle, then separated into two liquid phases at room temperature. The water phase was analyzed by gas chromatography to determine the solubility of epoxybutene in pure water. Next, for each solvent specified in Table I, one part by weight water-miscible solvent was added to two parts of the standard water-epoxybutene solution. Each water-solvent-epoxybutene solution was placed in a separatory funnel, shaken, allowed to settle, then separated into two liquid phases at room temperature. The aqueous phase from the decantation was analyzed by gas chromatography to determine the epoxybutene solubility in that phase. From these compositions, distribution coefficients were calculated as: [formula]
The relative affinity of solvents for absorption of epoxybutene was determined from a relative molar distribution term, calculated as: [formula]

[2] = Rate of epoxybutene hydrolysis in phosphate buffers at different pH, followed by UV spectrophotometry; assay type: physicochemical
Experimental: The rate of epoxybutene hydrolysis was determined at several different pH levels according to the following procedure: A stirred, thermostatted cell was filled with a solution of buffered water and allowed to equilibrate at a temperature of 29° C. Phosphate buffers at a pH of 3, 5, 7, 8, 9, and 11 were prepared by adding either phosphoric acid or sodium hydroxide to a 0.05 M solution of disodium phosphate. For each experiment, the buffer solution was charged to a stirred, thermostatted equilibrium cell equipped with an UV spectrophometer probe. Once the solution had equilibrated at 29° C. and a background spectra had been collected, a 10 microliter standard sample of epoxybutene in acetronitrile (warmed to 29° C.) was injected into the cell to give an initial concentration of 0.01M epoxybutene. The disappearance of epoxybutene and formation of 3-butene-1,2-diol over time was followed by UV spectrophotometry.

[3] = 25° C.; cited from earlier work

Compound	Relative Distribution [1]	further results
CN1CCCC1=O [1-Methyl-2-Pyrrolidinone]	2.78	–
CCCCOCCOCCO [2-(2-Butoxyethoxy)ethanol]	4.30	–
COCCOCCO [2-(2-Methoxyethoxy)ethanol]	1.83	–
CCCCOCCO [2-Butoxyethanol]	1.29	–
C=CC(O)CO (stereo not shown) [3-Buten-1,2-Diol]	1.39	–
CC#N [Acetonitrile]	1.89	–
CN(C)C=O [Dimethylformamide]	2.44	–
C[S+](C)[O-] [Dimethylsulfoxide]	1.40	–
C=CC1CO1 (stereo not shown) [Epoxybutene, 3,4-epoxy-1-butene]	–	Relative Rate of Epoxybutene Hydrolysis ([2]; pH 3, phosphate buffer, 29° C., relative to pH 7): 555.5; Relative Rate of Epoxybutene Hydrolysis ([2]; pH 3, phosphate buffer, 29° C., relative to pH 7, listed as epoxybutene): over 500; Relative Rate of Epoxybutene Hydrolysis ([2]; pH 5, phosphate buffer, 29° C., relative to pH 7): 5.6; Relative Rate of Epoxybutene Hydrolysis ([2]; pH 7, phosphate buffer, 29° C. (reference)): 1.0; Relative Rate of Epoxybutene Hydrolysis ([2]; pH 8, phosphate buffer, 29° C., relative to pH 7): 0.7; Relative Rate of Epoxybutene Hydrolysis ([2]; pH 8, phosphate buffer, 29° C., relative to pH 7, listed as epoxybutene): about 0.7; Relative Rate of Epoxybutene Hydrolysis ([2]; pH 9, phosphate buffer, 29° C., relative to pH 7): 3.2; Relative Rate of Epoxybutene Hydrolysis ([2]; pH 11, phosphate buffer, 29° C., relative to pH 7): 17.6; Relative Rate of Epoxybutene Hydrolysis ([2]; pH 11, phosphate buffer, 29° C., relative to pH 7, listed as epoxybutene): over 17; solubility of epoxybutene in water [3]: 5 to 6 weight percent
OCCO [Ethylene Glycol]	1.14	–
c1ccc2ncccc2c1 [Quinoline]	1.03	–

The next lines start with results.

Relative Distribution [1]	Compound	further results
1.05	COC(C)COC(C)=O (stereo not shown) [2-Methoxypropyl Acetate]	–
1.49	CCCOCCO [2-Propoxyethanol]	–
2.02	COCC(C)O (stereo not shown) [Propylene Glycol Monomethyl Ether]	–
1.90	CC(O)CO (stereo not shown) [Propylene Glycol]	–
1.54	COCCOCCOCCOC [Triglyme]	–
